Key:
[1] = Fluorescence response of heavy metal ion indicator; format: binding; conditions: 1 micromolar compound, 5 micromolar Cu(I), 5 mM MOPS buffer pH 7.2
Description: The tetramethyl ester intermediate is then dissolved in 15 mL 1,4-dioxane and concentrated ammonium hydroxide (0.8 mL) is added in one portion. The reaction mixture is centrifuged and the orange pellet is dissolved in 5 mL pure water, then applied to a column of lipophilic SEPHADEX […] resin and eluted with pure water. Pure column fractions are combined, frozen and lyophilized to give phenanthroline conjugate, dipotassium salt (Compound 106) as an orange powder. κ=54,479 cm^-1 M^-1 in 10 mM EGTA, 100 mM KCl, 10 mM MOPS buffer at pH 7.20.

[2] = Solubility in water; format: physicochemical
Source text: (§1) In another substrate embodiment, the dye compounds are fluorinated dyes for which R^11 is H, that are substrates for oxidative enzymes and other reactive oxidizing agents, particularly for peroxidase enzymes. […] Unlike their non-fluorinated analogs, fluorinated dihydrofluorescein and dihydrorhodol, are stable in aqueous solutions without the use of blocking groups on the hydroxyl or amine functions that typically reduce aqueous solubility. For example, Compound 84 (4,5,6,7-tetrafluorodihydrofluorescein, Example 85) is soluble in water to at least 2 mM, while existing diacetate fluorogenic peroxidase substrates are typically soluble only in the single-digit μM concentration range.

[3] = Stability toward hydrogen peroxide without peroxidase; format: physicochemical; conditions: absence of horseradish peroxidase, 1 mM substrate, OPD buffer pH 5.5
Source text: as §1
(§2) A 2 mM solution (0.5 mL) of TFDHF is prepared in water. OPD buffer (0.5M Phosphate-citrate buffer) without hydrogen peroxide (pH 5.5, 0.5 mL) is added, resulting in a 1 mM concentration of substrate. Minor background fluorescence, indicating the presence of some contaminating oxidized dye, serves to provide a fluorescence signal at time 0. […] After incubation at room temperature in darkness for 25 minutes, the reaction solution is diluted 1:20 into potassium phosphate buffer at pH 8, and fluorescence emission spectra are recorded.

[4] = molecular target: T1, Horseradish Peroxidase (HRP) (Armoracia rusticana, UniProt P00433); assay: Detection of horseradish peroxidase activity in vitro; format: biochemical; conditions: 1 mM substrate, OPD buffer with hydrogen peroxide, HRP 1 μL, 10^-4 Units
T1 sequence (P00433 31-353): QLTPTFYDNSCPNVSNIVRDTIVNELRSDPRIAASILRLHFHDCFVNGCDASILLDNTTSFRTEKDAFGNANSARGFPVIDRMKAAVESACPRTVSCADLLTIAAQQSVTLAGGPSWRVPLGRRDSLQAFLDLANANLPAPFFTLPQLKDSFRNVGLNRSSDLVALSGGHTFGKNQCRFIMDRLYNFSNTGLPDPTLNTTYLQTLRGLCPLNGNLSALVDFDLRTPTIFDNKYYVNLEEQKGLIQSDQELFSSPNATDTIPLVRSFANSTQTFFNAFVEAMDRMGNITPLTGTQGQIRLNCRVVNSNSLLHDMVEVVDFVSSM
Description: as §2, with “OPD buffer (0.5M Phosphate-citrate buffer) without hydrogen peroxide (pH 5.5, 0.5 mL) is added, resulting in a 1 mM concentration of substrate.” left out

O=C(Nc1cc2cccnc2c2ncccc12)c1ccc2c(c1)C(=O)OC21c2cc(F)c(O)cc2Oc2cc(O)c(F)cc21 [Compound 106]
decrease in emission intensity at 523 nm [1]: 5 fold

O=C(O)c1c(F)c(F)c(F)c(F)c1C1c2ccc(O)cc2Oc2cc(O)ccc21 [Compound 84, 4,5,6,7-tetrafluorodihydrofluorescein]
soluble in water [2]: at least 2 mM | reaction with hydrogen peroxide alone [3]: stable toward reaction of hydrogen peroxide during the period of analysis | reaction with hydrogen peroxide alone ([3]; listed as TFDHF): no detectable fluorescence increase | fluorescence production on addition of HRP [4]: immediate production of bright yellow fluorescence
